US12187663B2, “Thyromimetics with a biphenylmethane scaffold and their use” (INTERNATIONAL SOCIETY FOR DRUG DEVELOPMENT S.R.L., priority 2019, dated 2025)

What was measured:
TR-alpha = biological target: T1, TR-alpha (Homo sapiens, UniProt P10827); experiment: LanthaScreen TR-FRET nuclear receptor coregulator assay, TR-alpha; assay type: biochemical; settings: for EC50: Nuclear Receptor TR-alpha, coregulator peptide recruitment; for interaction with TRalpha receptor: conclusion from TR-FRET data
T1 construct: In this assay Nuclear Receptor-LBD is added to ligand test compounds; purchased Invitrogen Corporation, Life Technologies
T1 sequence (P10827 163-410 isoform P10827-2 limits assumed, other chains not shown): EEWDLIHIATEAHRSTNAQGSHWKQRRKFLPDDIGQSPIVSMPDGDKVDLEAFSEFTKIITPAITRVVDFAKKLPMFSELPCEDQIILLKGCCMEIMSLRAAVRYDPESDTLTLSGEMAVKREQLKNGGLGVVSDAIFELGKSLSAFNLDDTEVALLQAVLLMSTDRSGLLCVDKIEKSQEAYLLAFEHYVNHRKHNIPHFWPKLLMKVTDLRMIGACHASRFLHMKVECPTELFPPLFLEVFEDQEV
Protocol: (§1) The compounds of Formula (I,II) were tested in the biological test named LANTHASCREEN TR-FRET NUCLEAR RECEPTOR COREGULATOR ASSAY (Invitrogen Corporation, Life Technologies).
(§2) In this assay Nuclear Receptor-LBD is added to ligand test compounds followed by addition of a mixture of the fluorescein-coregulator peptide and terbium anti-GST antibody.

[1] = Serum levels of cholesterol, glucose, transaminases, amylase, lipase, bilirubin and triglycerides; assay type: in vivo, F-344 rats; settings: rats, intragastric administration, 3 days
HepG2 cells = experiment: Cell viability MTT assay; assay type: cell-based; settings: 1-10 μM, 24 h
Protocol: HepG2 cells were seeded in a 96-well plate (Corning, USA) at a density of 1.0×10^4 cells/well with DMEM (200 μl/well), and then incubated for 24 h according to routine procedure. After being treated with test compounds (1-10 μM) and incubated for 24 h (8 wells for each sample), 20 μL/well MTT (5 g/L) was added to each well. The medium was then removed after 4 h incubation and 100 μL/well sodium dodecyl sulfate (SDS)-HCl solution was added to dissolve the reduced formazan product after incubation for 16 h at 37° C. Finally, the plate was read at 570 nm, using a micro-plate reader (Bio-Rad 680, USA).

hepatocytes = experiment: Mitotic activity of hepatocytes (BrdU incorporation); assay type: in vivo, F344 rats; settings: 3 days; for hepatocyte proliferation (mitogenic effect): i.p. injection 75 μg/100 g b.w.; for hepatocyte proliferation (BrdU incorporation): intragastric (i.g.) 50, 75 and 100 μg/100 g b.w.
Text: FIG. 7. […] A. Labeling Index (L.I.) of hepatocytes from F344 rats subjected to the treatment with test compounds was expressed as number of BrdU-positive hepatocyte nuclei/100 nuclei. Results were expressed as means±S.E. of 3-5 rats per group. At least 3000 hepatocytes per liver were scored. *P<0.05; **P<0.01.
(§3) Five-week-old male F-344 rats purchased from Charles River (Milano, Italy) were maintained on a standard laboratory diet (Ditta Mucedola, Milano, Italy). The animals were given food and water ad libitum with a 12-h light/dark daily cycle and were acclimated for 1 week before the start of the experiment. All procedures were performed in accordance with the Guidelines for the Care and Use of Laboratory Animals and were approved by the Italian Ministry of Health. […] A control group received the vehicle (DMSO 5% in corn oil). Additional two groups received daily injections of either IS25 or TG68 at the dose of 75 μg/100 g b.wt. intraperitoneally for 3 days. For the measurement of hepatocyte proliferation, animals received bromodeoxyuridine (BrdU; 1 g/1 L) in drinking water during the 3-day treatment period (FIGS. 7A and B).

TR-beta = biological target: T2, TR-beta (Homo sapiens, UniProt P10828); experiment: LanthaScreen TR-FRET nuclear receptor coregulator assay, TR-beta; assay type: biochemical; settings: coregulator peptide recruitment
T2 construct: In this assay Nuclear Receptor-LBD is added to ligand test compounds; purchased Invitrogen Corporation, Life Technologies
T2 sequence (P10828 217-461 limits assumed): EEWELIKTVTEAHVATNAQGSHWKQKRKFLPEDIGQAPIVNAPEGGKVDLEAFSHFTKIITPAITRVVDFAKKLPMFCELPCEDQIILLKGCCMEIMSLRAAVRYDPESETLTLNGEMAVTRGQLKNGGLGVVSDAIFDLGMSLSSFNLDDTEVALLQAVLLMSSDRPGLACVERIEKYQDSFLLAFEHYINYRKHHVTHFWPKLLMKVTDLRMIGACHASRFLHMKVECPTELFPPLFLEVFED
Protocol: as §1, §2

Solubility in water = assay type: physicochemical
ACC = experiment: Western blot of phosphorylated ACC in HepG2 cells; assay type: cell-based, Human; settings: twenty-four hours of treatment
Protocol: Human hepatocellular carcinoma cells (HepG2), obtained from American Type Culture Collection (Manassas, Va., USA), were cultured in low-glucose (LG) Dulbecco's modified Eagle's medium (DMEM) ([…], Invitrogen, Carlsbad, Calif., USA) or high-glucose (HG) DMEM ([…]) supplemented with 10% fetal bovine serum (FBS) and […] penicillin/streptomycin in an atmosphere of 5% CO2 at 37° C. These cells were then treated with tested compounds at various concentrations for 24 h. After treatments, cells were lysed in a buffer containing 20 mM Tris-HCl (pH 7.5), 0.9% NaCl, 0.2% Triton X-100, and 1% of the protease inhibitor cocktail (Sigma-Aldrich, Milan, Italy) and then stored at −80° C. for further western blot analysis. All the analyses were conducted on cells between the third and the sixth passage.
Proteins (20-30 μg) were separated on CriterionTGX™ gel (4-20%) and transferred on Immuno-PVDF membrane (Biorad, Milan, Italy) for 1 h. Blots were incubated with the primary antibody at 4° C. overnight. All the polyclonal antibodies for the protein of interest were purchased from Santa Cruz Biotechnology, Inc., Dallas, TX, USA. Then, blots were washed 3 times for 10 minutes with 1×TBS, 0.1% Tween® 20 and incubated for 1 h with secondary antibody (peroxidase-coupled anti rabbit in 1×TBS, 0.1% Tween®20). […] Band densitometric analysis was performed using Image Lab Software (Biorad, Milan, Italy).
The liver is a major organ responsible for most functions of cellular metabolism and a mediator between dietary and endogenous sources of energy for extrahepatic tissues. In this context, AMPK constitutes an intrahepatic energy sensor regulating physiological energy dynamics by limiting anabolism and stimulating catabolism, thus increasing ATP availability. Once activated, AMPK phosphorylates its downstream substrates to reduce ATP-consuming anabolic pathways, including cholesterol, fatty acid, and triacylglycerol synthesis, and increases ATP-generating catabolic pathways, including fatty acid oxidation and lipolysis. […]

[2] = Liver/body weight ratio in rats; assay type: in vivo, F344 male rats; settings: 3 days daily; IS25 or TG68 50, 75, 100 μg/100 g b.w. i.g. or 75 μg/100 g i.p.; T3 20 μg/100 g b.w.
Protocol: as §3
A control group received the vehicle (DMSO 5% in corn oil). Additional two groups received daily injections of either IS25 or TG68 at the dose of 75 μg/100 g b.w. intraperitoneally for 3 days.

Row | Compound | EC50 (TR-alpha) | interaction with TRalpha receptor (TR-alpha) | serum TGs level [1] | cell viability (cell death with respect to control) (HepG2 cells) | hepatocyte proliferation (mitogenic effect) (hepatocytes) | hepatocyte proliferation (BrdU incorporation) (hepatocytes) | EC50 (TR-beta) | solubility in water (Solubility in water) | ACC phosphorylation (p-ACC) (ACC) | liver/body weight ratio [2]
1 | CC(=O)Nc1ccc(Cc2c(C)cc(OCC(=O)O)cc2C)cc1C(C)C [TG68, 2-(4-(4-acetamido-3-isopropylbenzyl)-3,5-dimethylphenoxy)acetic acid] | > 1000 nM | do not interact | significantly reduced | did not significantly (p<0.05) cause cell death | the mitogenic effect was lost | induced a dose dependent hepatocyte proliferation | > 1000 nM | very soluble in water | significant ACC phosphorylation | no such effect was observed
2 | Cc1cc(OCC(=O)O)cc(C)c1Cc1ccc(N)c(C(C)C)c1 [IS25, 2-(4-(4-amino-3-isopropylbenzyl)-3,5-dimethylphenoxy)acetic acid] | > 1000 nM | do not interact | significantly reduced | did not significantly (p<0.05) cause cell death | the mitogenic effect was lost | induced a dose dependent hepatocyte proliferation | 458 nM | very soluble in water | significant ACC phosphorylation | no such effect was observed
